According to PubChem BioAssay (NCI):
Several values for one entry are separate records, joined by “and”; a condition that tells them apart may be missing. Identical values can stand only once.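 Assay format: 96-well plates, 48-hour exposure. The concentration for 50% growth inhibition is given as GI50. Definition used: TGI = concentration required for complete inhibition of growth.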

Experiments:
Test in all cases: NCI tumour cell line growth inhibition, 48 h; in the data active = GI50 below about 0.43 µM; inactive = the rest
EKVX NSCLC = tested on: EKVX NSCLC
K-562 leukemia = tested on: K-562 leukemia
LOX IMVI melanoma = tested on: LOX IMVI melanoma
MDA-N = tested on: MDA-N
MDA-MB-231 breast = tested on: MDA-MB-231 breast
A549 NSCLC = tested on: A549 NSCLC
OVCAR-3 ovarian = tested on: OVCAR-3 ovarian
SK-MEL-28 melanoma = tested on: SK-MEL-28 melanoma
SF-539 CNS = tested on: SF-539 CNS
SNB-19 CNS = tested on: SNB-19 CNS
UACC-62 melanoma = tested on: UACC-62 melanoma
HCT-15 colon = tested on: HCT-15 colon
OVCAR-8 ovarian = tested on: OVCAR-8 ovarian

COc1ccc(NC(=O)C2=C(SC)C(C#N)C(=O)N=C2N)cc1 (stereo unspecified)
> 100 µM: TGI (EKVX NSCLC) | TGI (K-562 leukemia) | TGI (LOX IMVI melanoma) | TGI (MDA-N) | TGI (MDA-MB-231 breast) | TGI (A549 NSCLC) | TGI (OVCAR-3 ovarian) | TGI (SK-MEL-28 melanoma) | TGI (SF-539 CNS) | TGI (SNB-19 CNS) | TGI (UACC-62 melanoma) | TGI (HCT-15 colon)

COc1ccccc1NC(=O)C(C#N)=C(SC)SC
> 100 µM: TGI (EKVX NSCLC) | TGI (K-562 leukemia) | TGI (LOX IMVI melanoma) | TGI (MDA-N) | TGI (MDA-MB-231 breast) | TGI (A549 NSCLC) | TGI (OVCAR-3 ovarian) | TGI (SK-MEL-28 melanoma) | TGI (SF-539 CNS) | TGI (SNB-19 CNS) | TGI (UACC-62 melanoma) | TGI (HCT-15 colon)

COc1ccc(/C=C/C(=O)NCC(NC(=O)/C=C/c2ccc(OC)c(OC)c2)C(=O)O)cc1OC (stereo unspecified)
> 100 µM: TGI (EKVX NSCLC) | TGI (K-562 leukemia) | TGI (LOX IMVI melanoma) | TGI (MDA-N) | TGI (MDA-MB-231 breast) | TGI (A549 NSCLC) | TGI (OVCAR-3 ovarian) | TGI (SK-MEL-28 melanoma) | TGI (SF-539 CNS) | TGI (OVCAR-8 ovarian) | TGI (SNB-19 CNS) | TGI (UACC-62 melanoma)

COC(=O)/C=C/c1cc(OC)c2c(c1)C(C(=O)OC)C(c1ccc(OC)c(OC)c1)O2 (stereo unspecified)
> 100 µM: TGI (EKVX NSCLC) | TGI (K-562 leukemia) | TGI (LOX IMVI melanoma) | TGI (MDA-N) | TGI (MDA-MB-231 breast) | TGI (A549 NSCLC) | TGI (OVCAR-3 ovarian) | TGI (SK-MEL-28 melanoma) | TGI (OVCAR-8 ovarian) | TGI (SNB-19 CNS) | TGI (UACC-62 melanoma) | TGI (HCT-15 colon)
inactive: GI50 (EKVX NSCLC) 39.3 µM and 5.12 µM | GI50 (MDA-N) 30.6 µM

Cc1ccc2c(ccc3c[n+]4ccccc4c(C)c32)c1
4.02 µM: TGI (OVCAR-3 ovarian)
27.8 µM: TGI (LOX IMVI melanoma)
11.5 µM: TGI (SK-MEL-28 melanoma)
> 100 µM: TGI (EKVX NSCLC) | TGI (K-562 leukemia) | TGI (MDA-N) | TGI (HCT-15 colon)
12.8 µM: TGI (SNB-19 CNS)
40.9 µM: TGI (A549 NSCLC)
9.83 µM: TGI (SF-539 CNS)
16.2 µM: TGI (OVCAR-8 ovarian)
23.1 µM: TGI (MDA-MB-231 breast)

CC(=O)Nc1c(C)cc(OCC(=O)O)cc1C
> 100 µM: TGI (EKVX NSCLC) | TGI (K-562 leukemia) | TGI (LOX IMVI melanoma) | TGI (MDA-N) | TGI (MDA-MB-231 breast) | TGI (A549 NSCLC) | TGI (OVCAR-3 ovarian) | TGI (SK-MEL-28 melanoma) | TGI (OVCAR-8 ovarian) | TGI (SNB-19 CNS) | TGI (UACC-62 melanoma) | TGI (HCT-15 colon)

CCCCCCCCCC(=O)OCC1(CO)C/C(=C/CC(C(C)C)C(C)C)C(=O)O1 (stereo unspecified)
97 µM: TGI (K-562 leukemia)
> 100 µM: TGI (EKVX NSCLC) | TGI (LOX IMVI melanoma) | TGI (MDA-N) | TGI (MDA-MB-231 breast) | TGI (A549 NSCLC) | TGI (OVCAR-3 ovarian) | TGI (SK-MEL-28 melanoma) | TGI (OVCAR-8 ovarian) | TGI (SNB-19 CNS) | TGI (UACC-62 melanoma) | TGI (HCT-15 colon)
